Experimental findings from US9878996B2, “2-imidazolyl-pyrimidine scaffolds as potent and selective inhibitors of neuronal nitric oxide synthase” (Northwestern University, priority 2014, dated 2018) are described below.

Series [1] concerns the target rat nNOS (Rattus norvegicus (Rat), UniProt P29476).
Series [2] deals with human nNOS (Homo sapiens (Human), UniProt P29475). To be noted: for pKi: read-out: Ki hnNOS, Ki from IC50 by Cheng-Prusoff.
The target of series [3] is eNOS (Bos taurus, UniProt P29473). The following applies: read-out: Ki eNOS; Ki from IC50 by Cheng-Prusoff.
Chain of eNOS (Bos taurus, UniProt P29473) (P29473 2-1205 limits assumed): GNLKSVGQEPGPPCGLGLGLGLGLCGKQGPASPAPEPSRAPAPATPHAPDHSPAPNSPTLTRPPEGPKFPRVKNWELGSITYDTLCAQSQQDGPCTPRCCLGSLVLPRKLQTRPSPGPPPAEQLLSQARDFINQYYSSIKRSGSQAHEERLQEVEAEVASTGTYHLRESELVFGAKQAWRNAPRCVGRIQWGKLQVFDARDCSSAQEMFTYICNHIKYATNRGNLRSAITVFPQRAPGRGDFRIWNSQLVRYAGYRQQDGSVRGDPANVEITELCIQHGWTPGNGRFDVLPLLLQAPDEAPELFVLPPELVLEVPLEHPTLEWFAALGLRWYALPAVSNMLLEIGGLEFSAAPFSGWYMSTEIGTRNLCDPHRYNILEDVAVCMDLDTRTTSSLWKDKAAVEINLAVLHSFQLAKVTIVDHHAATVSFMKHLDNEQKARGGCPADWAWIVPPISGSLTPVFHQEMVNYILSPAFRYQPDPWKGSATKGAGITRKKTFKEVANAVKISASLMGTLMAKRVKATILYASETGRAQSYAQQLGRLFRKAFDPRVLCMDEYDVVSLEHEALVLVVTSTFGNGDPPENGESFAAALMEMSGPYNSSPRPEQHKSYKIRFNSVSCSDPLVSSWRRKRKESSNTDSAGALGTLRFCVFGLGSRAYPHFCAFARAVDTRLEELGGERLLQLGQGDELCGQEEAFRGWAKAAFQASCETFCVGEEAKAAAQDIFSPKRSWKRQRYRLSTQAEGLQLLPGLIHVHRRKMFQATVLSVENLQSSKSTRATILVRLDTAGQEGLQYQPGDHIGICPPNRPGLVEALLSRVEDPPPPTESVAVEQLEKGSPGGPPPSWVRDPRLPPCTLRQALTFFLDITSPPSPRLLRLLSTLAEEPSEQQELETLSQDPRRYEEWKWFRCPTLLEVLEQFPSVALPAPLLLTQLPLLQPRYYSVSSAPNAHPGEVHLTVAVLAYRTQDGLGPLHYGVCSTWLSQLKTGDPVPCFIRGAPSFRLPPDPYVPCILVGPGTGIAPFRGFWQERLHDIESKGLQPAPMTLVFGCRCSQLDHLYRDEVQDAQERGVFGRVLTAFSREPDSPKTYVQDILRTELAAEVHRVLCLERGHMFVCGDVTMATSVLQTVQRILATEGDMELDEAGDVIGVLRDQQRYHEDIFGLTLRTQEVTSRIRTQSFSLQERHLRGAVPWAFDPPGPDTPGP
Series [4] addresses T1, iNOS (Mus musculus (Mouse), UniProt P29477). The following applies: for pKi: read-out: Ki iNOS, Ki from IC50 by Cheng-Prusoff; for Ratios n/i: selectivity nNOS over iNOS.
In series [5] the test system is eNOS. The following applies: for Ratios n/e: selectivity nNOS over eNOS.
The target of series [6] is T1, iNOS. As to the kind of experiment: biochemical.
For series [7], the target named is CYP3A4 (Homo sapiens (Human), UniProt P08684). The series is described as follows: CYP3A4 inhibition. The class given is in vitro ADME.
Chain of CYP3A4 (P08684 whole entry, species assumed): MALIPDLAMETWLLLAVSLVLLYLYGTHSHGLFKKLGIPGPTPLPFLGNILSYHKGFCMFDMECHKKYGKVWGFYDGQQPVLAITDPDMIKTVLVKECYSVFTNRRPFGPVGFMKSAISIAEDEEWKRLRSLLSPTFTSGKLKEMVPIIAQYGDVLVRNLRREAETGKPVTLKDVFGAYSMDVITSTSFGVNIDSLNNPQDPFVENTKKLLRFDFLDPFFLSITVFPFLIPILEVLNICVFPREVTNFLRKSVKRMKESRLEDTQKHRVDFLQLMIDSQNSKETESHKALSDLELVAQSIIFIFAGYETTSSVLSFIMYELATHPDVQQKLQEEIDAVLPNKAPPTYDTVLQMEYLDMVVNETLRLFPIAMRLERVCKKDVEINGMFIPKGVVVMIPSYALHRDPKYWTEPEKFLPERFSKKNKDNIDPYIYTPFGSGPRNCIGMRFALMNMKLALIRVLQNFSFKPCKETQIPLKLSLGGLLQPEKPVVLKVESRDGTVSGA
In series [8] the test system is panel of other CNS targets, including the muscarinic receptors. The series is described as follows: Primary binding assays on a panel of other CNS targets (NIMH PDSP). The following applies: 10 μM concentration.
In series [9] the test system is caco-2. As to the kind of experiment: Caco-2 assay. The class given is in vitro ADME.
The mark [10] stands for this setting: rat nNOS, Ki from IC50 by Cheng-Prusoff.
Setting [11] is: read-out: Ki nNOS, rat nNOS, Ki from IC50 by Cheng-Prusoff.

pIC50, pKi: −log10 of the molar value. Entries after “also recorded” stand apart in the source; their conditions may differ. Read-outs that look alike come from different tables or passages of the source. Where only a bound is given, the exact number is not on record here.

For the compound `c1cncc(CCCNCCc2ccnc(-n3ccnc3)n2)c1` [Compound 29], the “Ki nNOS” value in series [1] (setting [10]) is “good potency”. In addition, the pKi is 7.27 in [1] (setting [11]), 6.90 in series [2] and 4.96 in series [3]. The “Ki hnNOS” value in [2] (Ki from IC50 by Cheng-Prusoff) was “good potency”.

Turning to `Fc1cccc(CCN2CCN(c3ccnc(-n4ccnc4)n3)CC2)c1` [Compound 2], the pKi in series [1] (setting [11]) is 5.33.

`Fc1cccc(CC2CC2NCCc2ccnc(-n3ccnc3)n2)c1` (centres unmarked) [Compound 27]: the pKi in [1] (setting [11]) is 7.40; in series [2], 6.45; in [3], 4.84.

For `Fc1cccc(CCNCCc2cncc(-n3ccnc3)c2)c1` [Compound 48], in series [1] (setting [11]), the pKi was 5.26.

As for `Fc1cccc(CCNCc2ccnc(-n3ccnc3)n2)c1` [Compound 4], the pKi in series [1] (setting [11]) was 5.06.

For the compound `Fc1cccc(C2CC2CNCCc2ccnc(-n3ccnc3)n2)c1` (centres unmarked) [Compound 26], the pKi was 5.72 in [4], 7.25 in series [1] (setting [11]), 6.44 in series [2] and 5.40 in series [3]. Also, the Ratios n/i in series [4] is listed as 34. Moreover, in [5], the Ratios n/e is 71.

On to `Fc1cccc(CCCNCCc2ccnc(-n3ccnn3)n2)c1` [Compound 30], for which, in series [1] (setting [11]), the pKi is 4.22.

As to `Cc1cn(-c2nccc(CCNCCCc3cccc(F)c3)n2)cn1` [Compound 31], the pKi in series [6] is 3.54; in series [1] (setting [11]) it was 6.18; in [1] (read-out: potency for nNOS), 6.18; in series [2], 5.35. Moreover, in series [4], the Ratios n/i is 430. Besides, the pIC50 – broadly, the negative decadic logarithm of the IC50, by convention in mol/L – in [7] was 4.82. Moreover, the Ratios n/e in series [5] turned out to be 256.

Turning to `Fc1cccc(CCNCCc2ccnc(-n3ccnc3)n2)c1` [Compound 6], the pKi in series [4] was 5.96; in series [3] it was 5.40.

As to `Fc1cccc(CCCNCCc2ccnc(-n3ccnc3)n2)c1` [Compound 7], the pKi in series [4] is 6.11; in [1] (setting [11]), 7.72; in [2], 6.71; in series [3] it was 5.31. The “inhibition of other CNS targets” value in series [8] was “minimal inhibition for most of them”. Also, the “membrane / cellular permeability” value in series [9] is listed as “good cellular permeability; also recorded: has membrane permeability”.

Turning to `Fc1cccc(CCCNCc2ccnc(-n3ccnc3)n2)c1` [Compound 5], the figures for the pKi in [4], in series [1] (setting [11]) and in series [3] were 4.98, 5.57 and 4.05, respectively. In addition, in [4], the Ratios n/i is 4. Also, the Ratios n/e in series [5] was 33.

`Fc1cccc(CCNCCNc2ccnc(-n3ccnc3)n2)c1` [Compound 3]: in [4], the “selectivity over iNOS” value is on record as 17 fold, the pKi is 5.19 and the Ratios n/i came to 17. Moreover, in series [1] (setting [10]), the “Ki nNOS” value is given as “moderate submicromolar”. Besides, in [1] (setting [11]), the pKi is 6.43. Besides, the pKi in series [3] is 4.40. Also, in series [5], the “selectivity over eNOS” value is given as over 100 fold and the Ratios n/e came out at 109.

Consider `Clc1cccc(CCCNCCc2ccnc(-n3ccnc3)n2)c1` [Compound 25], for which the pKi was 5.70 in series [6], 7.49 in [1] (setting [11]), 6.90 in series [2] and 5.09 in series [3]. Moreover, the Ratios n/i in series [4] was determined as 28. The Ratios n/e in [5] turned out to be 253.

`N#Cc1cccc(CNCCc2ccnc(-n3ccnc3)n2)c1` [Compound 28]: the pKi in series [4] was 5.47; in series [1] (setting [11]), 6.74; in [2], 6.86; in series [3], 4.98.
